Experimental data: paper PMC8741576 (Molecular Diversity, 2022)
Where two headings read alike, the source gives them in different places.

Assays:
[1] = test system: LN-229 glioblastoma cells; test: Antiproliferative screening, MTS cell viability assay; format: cell-based; conditions: Homo sapiens
[2] = test system: Capan-1 pancreatic adenocarcinoma cells; test: as above; format: cell-based; conditions: Homo sapiens
[3] = test system: HCT-116 colorectal carcinoma cells; test: as above; format: cell-based; conditions: Homo sapiens
[4] = test system: NCI-H460 lung carcinoma cells; test: as above; format: cell-based; conditions: Homo sapiens
[5] = test system: DND-41 acute lymphoblastic leukemia cells; test: Antiproliferative screening, IncuCyte cell growth; format: cell-based; conditions: Homo sapiens
[6] = test system: HL-60 acute myeloid leukemia cells; test: Antiproliferative screening, IncuCyte cell growth; format: cell-based; conditions: Homo sapiens
[7] = test system: K-562 chronic myeloid leukemia cells; test: Antiproliferative screening, IncuCyte cell growth; format: cell-based; conditions: Homo sapiens
[8] = test system: Z-138 non-Hodgkin lymphoma cells; test: Antiproliferative screening, IncuCyte cell growth; format: cell-based; conditions: Homo sapiens
[9] = test system: HEL 299 normal human lung fibroblasts; test: Antiproliferative screening on noncancerous cells; conditions: for IC50: Homo sapiens, HEL 299, read-out: IC50 HEL 299; for Cytotoxicity against noncancerous cells in words: HEL 299
[10] = test system: human coronavirus 229E; conditions: HEL cell culture
[11] = in vitro; conditions: human
[12] = Cytotoxicity in MT-4 cell culture; format: cell-based; conditions: human, MT-4 cells
[13] = LN-229, 72 h, read-out: IC50 LN-229
[14] = CAPAN-1, 72 h, read-out: IC50 Capan-1
[15] = HCT-116, 72 h, read-out: IC50 HCT-116
[16] = NCI-H460, 72 h, read-out: IC50 NCI-H460
[17] = DND41, 72 h, read-out: IC50 DND-41
[18] = HL-60, 72 h, read-out: IC50 HL-60
[19] = K562, 72 h, read-out: IC50 K-562
[20] = Z-138, 72 h, read-out: IC50 Z-138
[21] = CAPAN-1, read-out: IC50 Capan-1
[22] = HCT-116, read-out: IC50 HCT-116
[23] = NCI-H460, read-out: IC50 NCI-H460

| SMILES | IC50 [1, 13] [µM] | IC50 [2, 14] [µM] | IC50 [3, 15] [µM] | IC50 [4, 16] [µM] | IC50 [5, 17] [µM] | IC50 [6, 18] [µM] | IC50 [7, 19] [µM] | IC50 [8, 20] [µM] | IC50 [9] [µM] | also measured |
| --- | --- | --- | --- | --- | --- | --- | --- | --- | --- | --- |
| O=C(NCCCCNc1ccnc2cc(Cl)ccc12)c1ccccc1NCc1ccccc1 [Compound 1, 2-(Benzylamino)-N-{4-[(7-chloroquinolin-4-yl)amino]butyl}benzamide] | 53.5 ± 12.2 | 57.6 ± 14.6 | > 100 | > 100 | > 100 | > 100 | 55.7 ± 10 | > 100 | 8 ± 4.4 |  |
| CC(C)(C)OC(=O)Nc1cc(Cl)ccc1C(=O)NCCCCNc1ccnc2cc(Cl)ccc12 [Compound 2, tert-Butyl {5-chloro-2-[[4-[(7-chloroquinolin-4-yl)amino]butyl]carbamoyl]phenyl}carbamate] | 30.1 ± 2.1 | 20.4 ± 9 | 32.4 ± 20 | 21.2 ± 10 | 46.2 ± 1.9 | 41.5 ± 17 | 54.5 ± 18.5 | 28.6 ± 14.6 | > 100 | Cytotoxicity against noncancerous cells in words [9]: no cytotoxicity against noncancerous cells |
| CC(C)(C)OC(=O)Nc1ccc(Br)cc1C(=O)NCCCCNc1ccnc2cc(Cl)ccc12 [Compound 3, tert-Butyl {4-bromo-2-[[4-[(7-chloroquinolin-4-yl)amino]butyl]carbamoyl]phenyl}carbamate] | 48.4 ± 20 | 40.6 ± 4.2 | 66.1 ± 30 | 69.3 ± 30.7 | 51.3 ± 4.4 | 60.5 ± 17 | 51.2 ± 9.3 | 55.2 ± 9.2 | > 100 | Cytotoxicity against noncancerous cells in words [9]: no cytotoxicity against noncancerous cells |
| COc1cc(NC(C)CCCNC(=O)c2ccccc2NCc2ccccc2)c2ncccc2c1 (stereo not drawn) [Compound 4, 2-(Benzylamino)-N-{4-[(6-methoxyquinolin-8-yl)amino]pentyl}benzamide] | > 100 | > 100 | > 100 | > 100 | > 100 | > 100 | > 100 | > 100 | > 100 |  |
| COc1cc(NC(C)CCCNC(=O)c2ccc(Cl)cc2NC(=O)OC(C)(C)C)c2ncccc2c1 (stereo not drawn) [Compound 5, tert-Butyl {5-chloro-2-[[4-[(6-methoxyquinolin-8-yl)amino]pentyl]carbamoyl]phenyl}carbamate] | > 100 | > 100 | > 100 | > 100 | > 100 | > 100 | > 100 | > 100 | > 100 |  |
| COc1cc(NC(C)CCCNC(=O)c2cc(Br)ccc2NC(=O)OC(C)(C)C)c2ncccc2c1 (stereo not drawn) [Compound 6, tert-Butyl {4-bromo-2-[[4-[(6-methoxyquinolin-8-yl)amino]pentyl]carbamoyl]phenyl}carbamate] | > 100 | > 100 | > 100 | > 100 | > 100 | > 100 | > 100 | > 100 | > 100 |  |
| Cc1nc(CNC(=O)c2ccccc2NCc2ccccc2)cc2c1[nH]c1ccccc12 [Compound 7, 2-(Benzylamino)-N-[(1-methyl-9H-pyrido[3,4-b]indol-3-yl)methyl]benzamide] | 35.8 ± 9.3 | 27.5 ± 8.1 | 34.6 ± 6 | 28.4 ± 4 | 53.5 ± 6.7 | 66.2 ± 18.3 | 90.7 ± 18.5 | 21 ± 10.1 | 50.9 ± 2.7 |  |
| Cc1nc(CNC(=O)c2ccc(Cl)cc2NC(=O)OC(C)(C)C)cc2c1[nH]c1ccccc12 [Compound 8, tert-Butyl {5-chloro-2-[[(1-methyl-9H-pyrido[3,4-b]indol-3-yl)methyl]carbamoyl]phenyl}carbamate] | 20.8 ± 13.8 | 6.5 ± 2.9 | 28.9 ± 24.1 | 8.3 ± 4.3 | 32.1 ± 20.8 | 6.7 ± 0.2 | 29.1 ± 21.3 | 8.2 ± 1.9 | 7.1 ± 1.8 |  |
| Cc1nc(CNC(=O)c2cc(Br)ccc2NC(=O)OC(C)(C)C)cc2c1[nH]c1ccccc12 [Compound 9, tert-Butyl {4-bromo-2-[[(1-methyl-9H-pyrido[3,4-b]indol-3-yl)methyl]carbamoyl]phenyl}carbamate] | 8.3 ± 3.1 | 5.8 ± 3 | 32.9 ± 7.9 | 3.2 ± 1.8 | 12.5 ± 6.9 | 10.8 ± 3.3 | 63.1 ± 36.9 | 4.1 ± 1.8 | 7.5 ± 1 |  |
| O=C(NCCCCNc1ccnc2ccccc12)c1ccccc1NCc1ccccc1 [Compound 10, 2-(Benzylamino)-N-[4-(quinolin-4-ylamino)butyl]benzamide] | 3 ± 2 | 4.2 ± 3.4 | 7.4 ± 1.5 | 2.2 ± 0.8 | 8 ± 3.2 | 14.9 ± 7.3 | 5.9 ± 3.5 | 4.6 ± 2 | 33.6 ± 15.6 | SI, selectivity index (CC50 to EC50 ratio) 229E [10]: > 7; CC50 [11]: 5.6 ± 3 µM |
| Nc1ccccc1C(=O)NCCCCNc1ccnc2ccccc12 [Compound 11, 2-Amino-N-[4-(quinolin-4-ylamino)butyl]benzamide] | 39.7 ± 4.4 | 62.2 ± 9.7 | 45.4 ± 4.9 | 87.4 ± 12.6 | 59.6 ± 1.7 | 44.7 ± 11 | 18.7 ± 6.7 | 31.2 ± 1.1 | 41.6 ± 1.2 | SI, selectivity index (CC50 to EC50 ratio) 229E [10]: 6.0; CC50 [11]: 46.3 ± 1.2 µM |
| COc1cc(NC(C)CCCNC(=O)c2ccc(Cl)cc2N)c2ncccc2c1 (stereo not drawn) [Compound 15, 2-Amino-4-chloro-N-{4-[(6-methoxyquinolin-8-yl)amino]pentyl}benzamide] | > 100 | > 100 | > 100 | > 100 | > 100 | > 100 | > 100 | > 100 | > 100 |  |
| Cc1nc(CNC(=O)c2ccccc2N)cc2c1[nH]c1ccccc12 [Compound 17, 2-Amino-N-[(1-methyl-9H-pyrido[3,4-b]indol-3-yl)methyl]benzamide] | 41 ± 0.3 | 31.4 ± 1.9 | 48.4 ± 3.8 | 54.8 ± 5.9 | 61.5 ± 2.1 | 44 ± 8.4 | 52 ± 5.3 | 35.1 ± 4.5 | 32.8 ± 3.3 |  |
| Cc1nc(CNC(=O)c2ccc(Cl)cc2N)cc2c1[nH]c1ccccc12 [Compound 18, 2-Amino-4-chloro-N-[(1-methyl-9H-pyrido[3,4-b]indol-3-yl)methyl]benzamide] | 44 ± 7.6 | 56.3 ± 24.1 | 55 ± 17.7 | 43.8 ± 8.4 | > 100 | > 100 | > 100 | > 100 | > 100 |  |
| Cc1nc(CNC(=O)c2cc(Br)ccc2N)cc2c1[nH]c1ccccc12 [Compound 19, 2-Amino-5-bromo-N-[(1-methyl-9H-pyrido[3,4-b]indol-3-yl)methyl]benzamide] | 46.2 ± 7.5 | 38.9 ± 5.8 | 60.8 ± 31 | 55 ± 5 | 68.3 ± 12.2 | 66.3 ± 34 | 64.9 ± 4.9 | 55.5 ± 12.1 | 82.6 ± 17.4 |  |
| CC(=O)O[C@@]12CO[C@@H]1C[C@H](O)[C@@]1(C)C(=O)[C@H](O)C3=C(C)[C@@H](OC(=O)[C@H](O)[C@@H](NC(=O)OC(C)(C)C)c4ccccc4)C[C@@](O)([C@@H](OC(=O)c4ccccc4)[C@H]21)C3(C)C [DTX, docetaxel, reference compound] |  |  |  |  |  |  |  |  |  | IC50 ([1]; LN-229, read-out: IC50 LN-229): 0.0018 ± 0.003 µM; IC50 [2, 21]: 0.01 ± 0.003 µM; IC50 [3, 22]: 0.0025 ± 0.003 µM; IC50 [4, 23]: 0.0271 ± 0.003 µM; IC50 ([5]; DND41, read-out: IC50 DND-41): 0.0055 ± 0.003 µM; IC50 ([6]; HL-60, read-out: IC50 HL-60): 0.0137 ± 0.003 µM; IC50 ([7]; K562, read-out: IC50 K-562): 0.0089 ± 0.003 µM; IC50 ([8]; Z-138, read-out: IC50 Z-138): 0.0025 ± 0.003 µM |
| N#C[C@@]1(c2ccc3c(N)ncnn23)O[C@H](CO)[C@@H](O)[C@H]1O [GS-441524] |  |  |  |  |  |  |  |  |  | CC50 [11]: > 100 µM |
| Cc1nc(CN)cc2c1[nH]c1ccccc12 [HA, (1-methyl-9H-pyrido[3,4-b]indol-3-yl)methanamine, reference compound] | > 100 | 68.6 ± 3.4 | > 100 | 85.1 ± 14.8 | > 100 | > 100 | > 100 | 57.4 ± 32.6 | > 100 | CC50 at 5 days [12]: 22.3 ± 4.9 µM; CC50 [11]: > 100 µM |
| CN[C@@H]1C[C@H]2O[C@@](C)([C@@H]1OC)n1c3ccccc3c3c4c(c5c6ccccc6n2c5c31)C(=O)NC4 [STS, staurosporine, reference compound] |  |  |  |  |  |  |  |  |  | IC50 [2, 21]: 0.0382 ± 0.003 µM; IC50 [3, 22]: 0.0687 ± 0.003 µM; IC50 [4, 23]: 0.0384 ± 0.003 µM; IC50 ([6]; HL-60, read-out: IC50 HL-60): 0.0598 ± 0.003 µM |
